From patent publication US4309559A, “Sulphonamides useful as pesticides” (FBC Limited, priority 1977, dated 1982)

Test system: Pythium ultimum
Assay: Cabbage seedling emergence in soil infected with Pythium ultimum
Format: in vivo, Pythium ultimum (on cabbage, variety Flower of Spring)
Details: 6 days, 25° C., 0-8 scale
Outline: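 Potting compost infested with one-week maize meal/sand Pythium ultimum culture (3 kg per 12 l soil), drenched with compound in Tween 20/water at 1500, 500, 150 or 50 ppm; 15 cabbage seeds sown per carton, 25° C, four replicates. After six days, soil-surface fungal growth and seedling emergence scored 0-8.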

For `CCCS(=O)(=O)N(c1c(C)cccc1C)C(C)C(=O)OCC` (centres unmarked) [Example 24, N-(1-[ethoxycarbonyl]ethyl)-2',6'-dimethyl-1-propanesulphonanilide], the “Germination Score” value (30 ppm) was 1 (20-34% inhibition) and the “Germination Score” value (100 ppm) was 5 (65-74% inhibition).
